Measured values from patent publication US20150105252A1, “SUBSTITUTED PYRAZOLES AS HERBICIDES” (E I DU PONT DE NEMOURS AND COMPANY, priority 2013, published 2015).

What was measured:
pigweed [1] = experiment: Test A preemergence; type: in vivo, Amaranthus retroflexus
How it was run: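 Injury readout: eye-scored versus untreated controls, 0 to 100. Exposure period: ~10 days, greenhouse. Application: soil-directed spray over sown seed (pre) or spray on seedlings 2–10 cm tall with one or two leaves (post), compound carried in non-phytotoxic solvent including surfactant.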

barnyardgrass = experiment: Test B flood; type: in vivo, Echinochloa crus-galli; conditions: 250 g ai/ha, visual rating on 0 to 100 scale (0 no effect, 100 complete control), 13 to 15 days
How it was run: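 Paddy-water application: seedlings at 2-leaf stage, flood depth 3 cm maintained for the test duration. Evaluation after 13–15 days in the greenhouse by eye relative to controls; 0–100 scale.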

foxtail, giant = experiment: Test C preemergence; type: in vivo, Setaria faberii
How it was run: (§1)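 Seeds sown in loam–sand blend and treated preemergence with test chemicals in non-phytotoxic solvent with surfactant; postemergence plants in peat-based medium, treated at 2–18 cm (1- to 4-leaf stage). Greenhouse 13 to 15 days, then visual rating versus controls, 0 (no effect) to 100 (complete control).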

pigweed [2] = experiment: Test C preemergence; type: in vivo, Amaranthus retroflexus
How it was run: as §1

ragweed [3] = experiment: Test C preemergence; type: in vivo, Ambrosia elation
How it was run: as §1

nutsedge, yellow = experiment: Test C postemergence; type: in vivo, Cyperus esculentus; conditions: for Plant response rating (scale of 0 to 100 where 0 is no effect and 100 is complete control), Nutsedge, Yellow: 31 g ai/ha, visually evaluated after 13 to 15 days; for Nutsedge, Yellow plant response rating / Plant response rating, Nutsedge, Yellow: postemergence; for Nutsedge, Yellow plant response rating: 62 g ai/ha, scale 0 to 100
How it was run: as §1

ragweed [4] = experiment: Test C postemergence; type: in vivo, Ambrosia elation; conditions: for Plant response rating (scale of 0 to 100 where 0 is no effect and 100 is complete control), Ragweed: 31 g ai/ha, visually evaluated after 13 to 15 days; for Ragweed plant response rating / Plant response rating, Ragweed: postemergence; for Ragweed plant response rating: 62 g ai/ha, scale 0 to 100
How it was run: as §1

soybean = experiment: Test C postemergence; type: in vivo, Glycine max; conditions: for Plant response rating (scale of 0 to 100 where 0 is no effect and 100 is complete control), Soybean: 31 g ai/ha, visually evaluated after 13 to 15 days; for Soybean plant response rating / Plant response rating, Soybean: postemergence; for Soybean plant response rating: 62 g ai/ha, scale 0 to 100
How it was run: as §1

oilseed rape = experiment: Test C postemergence; type: in vivo, Brassica napus; conditions: for Plant response rating (scale of 0 to 100 where 0 is no effect and 100 is complete control), Oilseed Rape: 31 g ai/ha, visually evaluated after 13 to 15 days; for Oilseed Rape plant response rating / Plant response rating, Oilseed Rape: postemergence; for Oilseed Rape plant response rating: 62 g ai/ha, scale 0 to 100
How it was run: as §1

oat, wild = experiment: Test C postemergence; type: in vivo, Avena fatua; conditions: for Plant response rating (scale of 0 to 100 where 0 is no effect and 100 is complete control), Oat, Wild: 31 g ai/ha, visually evaluated after 13 to 15 days; for Oat, Wild plant response rating / Plant response rating, Oat, Wild: postemergence; for Oat, Wild plant response rating: 62 g ai/ha, scale 0 to 100
How it was run: as §1

kochia = experiment: Test C postemergence; type: in vivo, Kochia scoparia; conditions: for Plant response rating (scale of 0 to 100 where 0 is no effect and 100 is complete control), Kochia: 31 g ai/ha, visually evaluated after 13 to 15 days; for Kochia plant response rating / Plant response rating, Kochia: postemergence; for Kochia plant response rating: 62 g ai/ha, scale 0 to 100
How it was run: as §1

[5] = preemergence, 125 g ai/ha, visual injury, 0 to 100 scale, approx. 10 days
[6] = preemergence, 31 g ai/ha, visual rating, scale 0 to 100 (0 no effect, 100 complete control), 13 to 15 days
[7] = preemergence, 62 g ai/ha, scale 0 to 100 (0 no effect, 100 complete control), 13 to 15 days
[8] = preemergence, 125 g ai/ha, scale 0 to 100, 0 is no effect, 100 is complete control
[9] = 250 g ai/ha, scale 0 to 100 (0 no effect, 100 complete control)
[10] = 125 g ai/ha, scale 0 to 100, 0 no effect, 100 complete control
[11] = Preemergence, 16 g ai/ha, scale 0 to 100
[12] = preemergence, 31 g ai/ha, scale 0 to 100 (0 no effect, 100 complete control), 13 to 15 days
[13] = preemergence, 62 g ai/ha, 13 to 15 days, scale 0 to 100, 0 = no effect, 100 = complete control

Row | SMILES | Pigweed plant response rating (pigweed [1]; [5]) | Plant response rating, Barnyardgrass (barnyardgrass) | Foxtail, Giant plant response rating (foxtail, giant; [8]) | Pigweed plant response rating (pigweed [2]; [8]) | Ragweed plant response rating (ragweed [3]; [8]) | Plant response rating (scale of 0 to 100 where 0 is no effect and 100 is complete control), Nutsedge, Yellow (nutsedge, yellow; Postemergence) | Nutsedge, Yellow plant response rating (nutsedge, yellow) | Plant response rating, Nutsedge, Yellow (nutsedge, yellow; [10]) | Plant response rating (scale of 0 to 100 where 0 is no effect and 100 is complete control), Ragweed (ragweed [4]; Postemergence) | Ragweed plant response rating (ragweed [4]) | Plant response rating, Ragweed (ragweed [4]; [10]) | Plant response rating (scale of 0 to 100 where 0 is no effect and 100 is complete control), Soybean (soybean; Postemergence) | Soybean plant response rating (soybean) | Plant response rating, Soybean (soybean; [10]) | Plant response rating (scale of 0 to 100 where 0 is no effect and 100 is complete control), Oilseed Rape (oilseed rape; Postemergence) | Oilseed Rape plant response rating (oilseed rape) | Plant response rating, Oilseed Rape (oilseed rape; [10]) | Plant response rating (scale of 0 to 100 where 0 is no effect and 100 is complete control), Oat, Wild (oat, wild; Postemergence) | Oat, Wild plant response rating (oat, wild) | Plant response rating, Oat, Wild (oat, wild; [10]) | other results
1 | CCc1cc(-c2ccc(C(F)(F)F)cc2)nn1Cc1ccnc(C(F)(F)F)c1 [Compound 110] | 100 | 30 | 100 | 100 | 60 | 5 | 10 | 10 | 50 | 80 | 80 | 35 | 55 | 70 | 60 | 85 | 90 | 5 | 25 | 30 | Pigweed plant response rating (pigweed [1]; preemergence, 500 g ai/ha, visual injury after approx. 10 days, 0 to 100 scale (0 no effect, 100 complete control)): 100; Plant response rating (scale of 0 to 100), Foxtail, Giant (foxtail, giant; Preemergence, 250 g ai/ha): 100; Foxtail, Giant plant response rating (foxtail, giant; [6]): 98; Foxtail, Giant plant response rating (foxtail, giant; [7]): 98; Plant response rating (scale of 0 to 100), Pigweed (pigweed [2]; Preemergence, 250 g ai/ha): 100; Pigweed plant response rating (pigweed [2]; [6]): 95; Pigweed plant response rating (pigweed [2]; [7]): 100; Plant response rating (scale of 0 to 100), Ragweed (ragweed [3]; Preemergence, 250 g ai/ha): 75; Ragweed plant response rating (ragweed [3]; [6]): 35; Ragweed plant response rating (ragweed [3]; [7]): 35; Plant response rating, Nutsedge, Yellow (nutsedge, yellow; [9]): 10; Plant response rating, Ragweed (ragweed [4]; [9]): 80; Plant response rating, Soybean (soybean; [9]): 85; Plant response rating, Oilseed Rape (oilseed rape; [9]): 90; Plant response rating, Oat, Wild (oat, wild; [9]): 35; Plant response rating (scale of 0 to 100 where 0 is no effect and 100 is complete control), Kochia (kochia; Postemergence): 90; Kochia plant response rating (kochia): 90; Plant response rating, Kochia (kochia; [9]): 90; Plant response rating, Kochia (kochia; [10]): 90
2 | CCONC(=O)c1cc(CC)n(Cc2ccnc(C(F)(F)F)c2)n1 [Compound 77] | 100 | 0 | 100 | 100 | 85 | 5 | 5 | 5 | 5 | 10 | 10 | 10 | 25 | 35 | 5 | 5 | 15 | 5 | 5 | 5 | Pigweed plant response rating (pigweed [1]; Preemergence, 500 g ai/ha, 0 to 100 scale, 0 no effect, 100 complete control): 100; Plant response rating, Foxtail, Giant (foxtail, giant; [11]): 20; Foxtail, Giant plant response rating (foxtail, giant; [12]): 80; Plant response rating, Foxtail, Giant (foxtail, giant; [13]): 85; Plant response rating, Pigweed (pigweed [2]; [11]): 70; Pigweed plant response rating (pigweed [2]; [12]): 100; Plant response rating, Pigweed (pigweed [2]; [13]): 100; Plant response rating, Ragweed (ragweed [3]; [11]): 10; Ragweed plant response rating (ragweed [3]; [12]): 35; Plant response rating, Ragweed (ragweed [3]; [13]): 70; Plant response rating (scale of 0 to 100), Nutsedge, Yellow (nutsedge, yellow; Postemergence, 16 g ai/ha): 0; Plant response rating (scale of 0 to 100), Ragweed (ragweed [4]; Postemergence, 16 g ai/ha): 5; Plant response rating (scale of 0 to 100), Soybean (soybean; Postemergence, 16 g ai/ha): 10; Plant response rating (scale of 0 to 100), Oilseed Rape (oilseed rape; Postemergence, 16 g ai/ha): 5; Plant response rating (scale of 0 to 100), Oat, Wild (oat, wild; Postemergence, 16 g ai/ha): 5; Plant response rating (scale of 0 to 100), Kochia (kochia; Postemergence, 16 g ai/ha): 40; Plant response rating (scale of 0 to 100 where 0 is no effect and 100 is complete control), Kochia (kochia; Postemergence): 40; Kochia plant response rating (kochia): 45; Plant response rating, Kochia (kochia; [10]): 70
